Literature values in patent publication US12246097B2, “Nanoparticle vaccine adjuvant and methods of use thereof” (Massachusetts Institute of Technology, priority 2018, dated 2025).

System: chick embryo eggs
Settings: as measured by lethal dose in chick embryo eggs

4′-monophosporyl lipid A [MPLA]
toxicity reduced by a factor (relative to LPS): more than 1000
